Reference: patent US10487093B2, “Heterocyclic compounds, in particular 2-oxo-4,4,5,5,6,6,7,7-octahydrobenzoxazole derivatives, and their use as antibacterial compounds” (priority 2016, dated 2019)
Converted amounts (≈) assume the structure as drawn.

Columns and labels:
[1] = system: Acinetobacter baumannii ATCC 19606; assay: MIC, broth microdilution (CLSI) versus planktonic bacteria; type: cell-based; details: ATCC19606; Acinetobacter baumannii ATCC 19606; 16-20 h; mode of three independent experiments; read-out: MIC, Ab ATCC 19606
[2] = system: Acinetobacter baumannii NCTC 13420; assay: as above; type: cell-based; details: NCTC13420; Acinetobacter baumannii NCTC 13420; 16-20 h; mode of three independent experiments; read-out: MIC, Ab NCTC 13420
[3] = system: Streptococcus pneumoniae ATCC 49619; assay: as above; type: cell-based; details: ATCC49619; Streptococcus pneumoniae ATCC 49619; 16-20 h; mode of three independent experiments; read-out: MIC, Sp ATCC 49619
E. coli MG1655 S83L = type: cell-based, Escherichia coli; details: compared to the isogenic parent strain E. coli MG1655; S83L mutation on DNA gyrase subunit GyrA
E. coli MG1655 D87G = type: cell-based, Escherichia coli; details: compared to the isogenic parent strain E. coli MG1655; D87G mutation on DNA gyrase subunit GyrA
E. coli MG1655 = assay: MIC, broth microdilution (CLSI) versus planktonic bacteria; type: cell-based, Escherichia coli; details: Escherichia coli, MG1655, read-out: MIC, Ec MG1655 WT
E. coli ATCC BAA-2452 = assay: as above; type: cell-based; details: Escherichia coli ATCC BAA-2452; 16-20 h; mode of three independent experiments; read-out: MIC, Ec ATCC BAA 2452
[4] = system: Staphylococcus aureus ATCC 29213; assay: as above; type: cell-based; details: ATCC29213; Staphylococcus aureus ATCC 29213; 16-20 h; mode of three independent experiments; read-out: MIC, Sa ATCC 29213
E. coli NCTC 13476 = assay: as above; type: cell-based; details: NCTC13476; Escherichia coli NCTC 13476; 16-20 h; mode of three independent experiments; read-out: MIC, Ec NCTC 13476
[5] = system: Haemophilus influenzae ATCC 49247; assay: as above; type: cell-based; details: ATCC49247; Haemophilus influenzae ATCC 49247; 16-20 h; mode of three independent experiments; read-out: MIC, Hi ATCC 49247
[6] = system: human hepatic cell line (HepG2 ATCC HB-8065); assay: Human cell viability assay (CellTiter-Glo); details: Homo sapiens, HepG2, 24 h, read-out: IC50 (μg/mL) HepG2
[7] = system: Escherichia coli ATCC 25922; assay: MIC, broth microdilution (CLSI) versus planktonic bacteria; type: cell-based; details: ATCC25922; Escherichia coli ATCC 25922; 16-20 h; mode of three independent experiments; read-out: MIC, Ec ATCC 25922
[8] = system: Enterobacter cloacae NCTC 13406; assay: as above; type: cell-based; details: NCTC13406; Enterobacter cloacae NCTC 13406; 16-20 h; mode of three independent experiments; read-out: MIC, Ecl NCTC 13406
[9] = system: Pseudomonas aeruginosa ATCC 27853; assay: as above; type: cell-based; details: ATCC27853; Pseudomonas aeruginosa ATCC 27853; 16-20 h; mode of three independent experiments; read-out: MIC, Pa ATCC 27853

Row | Compound | MIC [1] | MIC [2] | MIC [3] | Fold increase in MIC, E. coli MG1655 S83L (E. coli MG1655 S83L) | Fold increase in MIC, E. coli MG1655 D87G (E. coli MG1655 D87G) | MIC (E. coli MG1655) | MIC (E. coli ATCC BAA-2452) | MIC [4] | MIC (E. coli NCTC 13476) | MIC [5] | IC50 [6] | MIC [7] | MIC [8] | MIC [9]
1 | N#Cc1ccc2ccc(=O)n(CCN[C@H]3CC[C@H]4[C@@H](C3)OC(=O)N4c3ccc4c(n3)NC(=O)CO4)c2n1 [Compound 15, 8-(2-{[(3aS,6S,7aR)-2-oxo-3-{3-oxo-2H,3H,4H-pyrido[3,2-b][1,4]oxazin-6-yl}-octahydro-1,3-benzoxazol-6-yl]amino}ethyl)-7-oxo-7,8-dihydro-1,8-naphthyridine-2-carbonitrile] | 1 to 10 µg/mL (≈ 1.99 to 19.9 µM) | 1 to 10 µg/mL (≈ 1.99 to 19.9 µM) | < 1 µg/mL | 1 fold | 1 fold | 1 to 10 µg/mL (≈ 1.99 to 19.9 µM) | 1 to 10 µg/mL (≈ 1.99 to 19.9 µM) | < 1 µg/mL | 1 to 10 µg/mL (≈ 1.99 to 19.9 µM) | 1 to 10 µg/mL (≈ 1.99 to 19.9 µM) | 10 to 100 µg/mL (≈ 19.9 to 199 µM) | < 1 µg/mL | 1 to 10 µg/mL (≈ 1.99 to 19.9 µM) | 1 to 10 µg/mL (≈ 1.99 to 19.9 µM)
2 | COc1ccc2ncc(=O)n(CCN[C@H]3CC[C@H]4[C@@H](C3)OC(=O)N4c3ccc4c(n3)NC(=O)CO4)c2c1 [Compound 24, 1-(2-{[(3aS,6S,7aR)-2-oxo-3-{3-oxo-2H,3H,4H-pyrido[3,2-b][1,4]oxazin-6-yl}-octahydro-1,3-benzoxazol-6-yl]amino}ethyl)-7-methoxy-1,2-dihydroquinoxalin-2-one] | < 1 µg/mL | < 1 µg/mL | < 1 µg/mL | 2 fold | 2 fold | < 1 µg/mL | < 1 µg/mL | < 1 µg/mL | < 1 µg/mL | < 1 µg/mL | > 100 µg/mL | < 1 µg/mL | < 1 µg/mL | < 1 µg/mL
3 | COc1cnc2ccc(=O)n(CCN[C@H]3CC[C@H]4[C@@H](C3)OC(=O)N4c3ccc4c(n3)NC(=O)CO4)c2c1 [Compound 30, 1-(2-{[(3aS,6S,7aR)-2-oxo-3-{3-oxo-2H,3H,4H-pyrido[3,2-b][1,4]oxazin-6-yl}-octahydro-1,3-benzoxazol-6-yl]amino}ethyl)-7-methoxy-1,2-dihydro-1,5-naphthyridin-2-one] | 1 to 10 µg/mL (≈ 1.97 to 19.7 µM) | < 1 µg/mL | < 1 µg/mL | 2 fold | 2 fold | < 1 µg/mL | < 1 µg/mL | < 1 µg/mL | < 1 µg/mL | < 1 µg/mL | > 100 µg/mL | < 1 µg/mL | 1 to 10 µg/mL (≈ 1.97 to 19.7 µM) | < 1 µg/mL
4 | N#Cc1ccc2ncc(=O)n(CCN[C@H]3CC[C@H]4[C@@H](C3)OC(=O)N4c3ccc4c(n3)NC(=O)CO4)c2c1 [Compound 31, 4-(2-{[(3aS,6S,7aR)-2-oxo-3-{3-oxo-2H,3H,4H-pyrido[3,2-b][1,4]oxazin-6-yl}-octahydro-1,3-benzoxazol-6-yl]amino}ethyl)-3-oxo-3,4-dihydroquinoxaline-6-carbonitrile] | < 1 µg/mL | < 1 µg/mL | < 1 µg/mL | 1 fold | 2 fold | < 1 µg/mL | < 1 µg/mL | < 1 µg/mL | 1 to 10 µg/mL (≈ 1.99 to 19.9 µM) | < 1 µg/mL | > 100 µg/mL | < 1 µg/mL | < 1 µg/mL | 1 to 10 µg/mL (≈ 1.99 to 19.9 µM)
5 | COc1ccc2ncc(=O)n(CCN[C@H]3CC[C@H]4[C@@H](C3)OC(=O)N4c3ccc4c(n3)NC(=O)CO4)c2n1 [Compound 35, (3aS,6S,7aR)-6-[(2-{6-methoxy-3-oxo-3H,4H-pyrido[2,3-b]pyrazin-4-yl}ethyl)amino]-3-{3-oxo-2H,3H,4H-pyrido[3,2-b][1,4]oxazin-6-yl}-octahydro-1,3-benzoxazol-2-one] | < 1 µg/mL | < 1 µg/mL | < 1 µg/mL | 1 fold | 2 fold | < 1 µg/mL | < 1 µg/mL | < 1 µg/mL | < 1 µg/mL | < 1 µg/mL | > 100 µg/mL | < 1 µg/mL | < 1 µg/mL | < 1 µg/mL
6 | COc1ccc2ccc(=O)n(CCN[C@@H]3CC[C@@H]4[C@@H](C3)OC(=O)N4c3ncc4c(n3)NC(=O)CO4)c2n1 [Compound 44, 1-(2-{[(3aR,6R,7aR)-2-oxo-3-{7-oxo-6H,7H,8H-pyrimido[5,4-b][1,4]oxazin-2-yl}-octahydro-1,3-benzoxazol-6-yl]amino}ethyl)-7-methoxy-1,2-dihydro-1,8-naphthyridin-2-one] | < 1 µg/mL | < 1 µg/mL | < 1 µg/mL | 2 fold | 2 fold | < 1 µg/mL | < 1 µg/mL | < 1 µg/mL | 1 to 10 µg/mL (≈ 1.97 to 19.7 µM) | < 1 µg/mL | > 100 µg/mL | < 1 µg/mL | < 1 µg/mL | 1 to 10 µg/mL (≈ 1.97 to 19.7 µM)
7 | N#Cc1cnc2ccc(=O)n(CCN[C@H]3CC[C@H]4[C@@H](C3)OC(=O)N4c3ccc4c(n3)NC(=O)CO4)c2c1 [Compound 46, 5-(2-{[(3aS,6S,7aR)-2-oxo-3-{3-oxo-2H,3H,4H-pyrido[3,2-b][1,4]oxazin-6-yl}-octahydro-1,3-benzoxazol-6-yl]amino}ethyl)-6-oxo-5,6-dihydro-1,5-naphthyridine-3-carbonitrile] | 1 to 10 µg/mL (≈ 1.99 to 19.9 µM) | 1 to 10 µg/mL (≈ 1.99 to 19.9 µM) | < 1 µg/mL | 2 fold | 1 fold | < 1 µg/mL | 1 to 10 µg/mL (≈ 1.99 to 19.9 µM) | < 1 µg/mL | 1 to 10 µg/mL (≈ 1.99 to 19.9 µM) | < 1 µg/mL | > 100 µg/mL | < 1 µg/mL | < 1 µg/mL | 1 to 10 µg/mL (≈ 1.99 to 19.9 µM)
8 | CN(CCn1c(=O)ccc2ccc(C#N)cc21)[C@H]1CC[C@H]2[C@@H](C1)OC(=O)N2c1ccc2c(n1)NC(=O)CO2 [Compound 47, 1-(2-{[(3aS,6S,7aR)-2-oxo-3-{3-oxo-2H,3H,4H-pyrido[3,2-b][1,4]oxazin-6-yl}-octahydro-1,3-benzoxazol-6-yl](methyl)amino}ethyl)-2-oxo-1,2-dihydroquinoline-7-carbonitrile] | < 1 µg/mL | < 1 µg/mL | < 1 µg/mL | 2 fold | 1 fold | < 1 µg/mL | < 1 µg/mL | < 1 µg/mL | 1 to 10 µg/mL (≈ 1.94 to 19.4 µM) | < 1 µg/mL | 10 to 100 µg/mL (≈ 19.4 to 194 µM) | < 1 µg/mL | < 1 µg/mL | < 1 µg/mL
